Measured values from ChEMBL document CHEMBL3997830, “Design, synthesis and biological evaluation of nonsecosteroidal vitamin D3 receptor ligands as anti-tumor agents” (Bioorg Med Chem Lett, 2017).

Tests used:
[1] = Selectivity index, ratio of IC50 for human L02 cells to IC50 for human PC3 cells; type: functional
MCF7 = assay: Antiproliferative activity against human MCF7 cells after 72 hrs by MTT assay; type: functional, cell-based; settings: MCF7, 72 h
PC-3 = assay: Antiproliferative activity against human PC3 cells after 72 hrs by MTT assay; type: functional, cell-based; settings: PC-3, 72 h
Vitamin D3 receptor = target: T1, Vitamin D3 receptor (Homo sapiens, UniProt P11473); assay: Inhibition of Fluormone VDR Red binding to human VDR LBD expressed in insect cells assessed as binding ability by fluorescence polarization assay
T1 sequence (P11473 whole entry): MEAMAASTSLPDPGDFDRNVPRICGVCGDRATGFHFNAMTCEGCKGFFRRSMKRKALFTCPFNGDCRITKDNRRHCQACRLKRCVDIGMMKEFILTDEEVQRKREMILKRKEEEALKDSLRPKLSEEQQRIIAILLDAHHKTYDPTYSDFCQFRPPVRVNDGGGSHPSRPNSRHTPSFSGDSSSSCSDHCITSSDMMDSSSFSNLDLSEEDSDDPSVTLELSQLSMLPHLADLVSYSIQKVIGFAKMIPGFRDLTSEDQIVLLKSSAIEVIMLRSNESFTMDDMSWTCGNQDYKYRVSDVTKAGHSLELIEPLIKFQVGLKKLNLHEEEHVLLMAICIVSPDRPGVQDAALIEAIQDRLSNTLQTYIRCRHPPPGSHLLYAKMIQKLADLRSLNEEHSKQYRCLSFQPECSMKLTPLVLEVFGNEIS

[2] = Selectivity index, ratio of IC50 for human L02 cells to IC50 for human MCF7 cells; type: functional
[3] = target: T2, Vitamin D3 receptor (Homo sapiens) (UniProt P11473); assay: Inhibition of Fluormone VDR Red binding to human VDR LBD expressed in insect cells assessed as binding ability at 1 uM by fluorescence polarization assay relative to 1,25(OH)2D3; design: scale not given: the % may be the effect or the level left
T2 sequence (whole entry): T1 sequence (P11473 whole entry)

L02 = assay: Antiproliferative activity against human L02 cells after 72 hrs by MTT assay; type: cell-based; settings: L02, 72 h

| Structure (SMILES) | Ratio IC50 [1] | IC50 (MCF7) [µM] | IC50 (PC-3) [µM] | IC50 (Vitamin D3 receptor) [µM] | Ratio IC50 [2] | Activity [3] [%] | IC50 (L02) [µM] |
| --- | --- | --- | --- | --- | --- | --- | --- |
| CCN(CC)CCNC(=O)c1cc(C(CC)(CC)c2ccc(C#CC(O)(CC)CC)c(C)c2)cn1CC | 7.9 | 1.8 | 5.35 | 0.0565 | 23.4 | 50.3 | 42.1 |
| CCn1cc(C(CC)(CC)c2ccc(C#CC(O)(CC)CC)c(C)c2)cc1C(=O)NCCN(C)C |  | 13.4 | 10.1 | 0.0513 |  | 55.3 |  |
| CCN(CC)CCNC(=O)c1ccc(C(CC)(CC)c2ccc(C#CC(O)(CC)CC)c(C)c2)n1CC | 3.5 | 3.77 | 5.85 | 0.0732 | 5.4 | 62.2 | 20.5 |
| C#CCCOC(=O)c1ccc(C(CC)(CC)c2ccc(C#CC(O)(CC)CC)c(C)c2)n1CC |  | > 50 | > 50 |  |  |  |  |
| CCn1c(C(=O)On2nnc3ccccc32)ccc1C(CC)(CC)c1ccc(C#CC(O)(CC)CC)c(C)c1 |  | > 50 | > 50 |  |  |  |  |
| CCCCC(=O)c1cc(C(CC)(CC)c2ccc(C#CC(O)(CC)CC)c(C)c2)cn1CC |  | > 50 | 48.1 |  |  |  |  |
| CCn1cc(C(CC)(CC)c2ccc(C#CC(O)(CC)CC)c(C)c2)cc1C(=O)NCC(=O)OC |  | 26.5 | 17.4 |  |  |  |  |
| CCn1cc(C(CC)(CC)c2ccc(C#CC(O)(CC)CC)c(C)c2)cc1C(=O)OCCO |  | 1.88 | 11.4 |  |  | 29.7 |  |
| CCn1c(C(=O)NCCCO)ccc1C(CC)(CC)c1ccc(C#CC(O)(CC)CC)c(C)c1 |  | 5.95 | > 50 | 0.123 |  | 59.7 |  |
| CCn1c(C(=O)NCCC(=O)OC)ccc1C(CC)(CC)c1ccc(C#CC(O)(CC)CC)c(C)c1 |  | > 50 | 36.3 |  |  |  |  |
| CCN(CC)CCNC(=O)c1ccc(C(CC)(CC)c2ccc(OCC(O)C(C)(C)C)c(C)c2)n1CC (stereo unspecified) | 7.6 | 1.37 | 2.8 | 0.0768 | 15.5 | 25.5 | 21.2 |
| CCn1cc(C(CC)(CC)c2ccc(C#CC(O)(CC)CC)c(C)c2)cc1C(=O)N[C@@H](C)CO | 5.9 | 1.91 | 6.05 |  | 18.5 | 19.8 | 35.4 |
| CCn1cc(C(CC)(CC)c2ccc(C#CC(O)(CC)CC)c(C)c2)cc1C(=O)NCC(=O)O |  | 17.5 | 6.3 |  |  | 14.6 |  |
| CCn1cc(C(CC)(CC)c2ccc(C#CC(O)(CC)CC)c(C)c2)cc1C(=O)N[C@@H](C(=O)O)C(C)C |  | 18 | 10.3 |  |  | 5.9 |  |
| CCn1cc(C(CC)(CC)c2ccc(C#CC(O)(CC)CC)c(C)c2)cc1C(=O)N[C@H](C(=O)O)C(C)C |  | 12.6 | 3.75 |  |  | 20 |  |
| CCn1c(C(=O)NCC(=O)O)ccc1C(CC)(CC)c1ccc(C#CC(O)(CC)CC)c(C)c1 |  | 5.14 | 2.25 | 0.0857 |  | 55.4 |  |
| CCCCC(=O)c1ccc(C(CC)(CC)c2ccc(C#CC(O)(CC)CC)c(C)c2)n1CC |  | > 50 | > 50 |  |  |  |  |
| CCn1cc(C(CC)(CC)c2ccc(C#CC(O)(CC)CC)c(C)c2)cc1C(=O)NCCC(=O)O |  | 30.6 | > 50 |  |  | 4.3 |  |
| CCn1c(C(=O)N[C@H](C(=O)O)C(C)C)ccc1C(CC)(CC)c1ccc(C#CC(O)(CC)CC)c(C)c1 |  | 13 | 5 |  |  | 5.9 |  |
| CCn1c(C(=O)NCc2ccc(OC)cc2)ccc1C(CC)(CC)c1ccc(C#CC(O)(CC)CC)c(C)c1 |  | > 50 | > 50 |  |  | 4 |  |
| CCn1cc(C(CC)(CC)c2ccc(C#CC(O)(CC)CC)c(C)c2)cc1C(=O)NCCCN(C)C |  | 20.2 | 15.1 |  |  | 31.6 |  |
| CCn1c(C(=O)NCCC(=O)O)ccc1C(CC)(CC)c1ccc(C#CC(O)(CC)CC)c(C)c1 |  | > 50 | 5.13 |  |  | 13.6 |  |
| CCN(CC)CCCNC(=O)c1ccc(C(CC)(CC)c2ccc(C#CC(O)(CC)CC)c(C)c2)n1CC |  | 17.8 | 8.5 |  |  | 18.8 |  |
